Peptide text beside a SMILES is read from it.

In this experiment the target is T1, WT ASIC1a (Homo sapiens, UniProt P78348).
T1 construct: expressed in transfected cells; host or cells: Xenopus laevis oocytes injected with cRNA
T1 sequence (P78348 1-528 G212D): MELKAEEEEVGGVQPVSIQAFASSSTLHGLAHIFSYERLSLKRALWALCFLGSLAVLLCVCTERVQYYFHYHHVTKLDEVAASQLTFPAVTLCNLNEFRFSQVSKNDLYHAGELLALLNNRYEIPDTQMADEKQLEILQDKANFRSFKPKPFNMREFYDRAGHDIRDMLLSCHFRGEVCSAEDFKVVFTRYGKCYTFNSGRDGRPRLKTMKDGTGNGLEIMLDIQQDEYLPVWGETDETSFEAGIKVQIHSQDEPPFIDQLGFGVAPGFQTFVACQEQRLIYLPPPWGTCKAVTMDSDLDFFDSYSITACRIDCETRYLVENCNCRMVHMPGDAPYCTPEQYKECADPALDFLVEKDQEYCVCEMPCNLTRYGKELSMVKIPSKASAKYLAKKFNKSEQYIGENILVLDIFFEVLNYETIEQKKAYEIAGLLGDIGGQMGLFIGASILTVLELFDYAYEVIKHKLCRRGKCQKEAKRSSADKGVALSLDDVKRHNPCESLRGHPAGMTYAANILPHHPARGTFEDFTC
In words: Disappearance of FRRFa-induced Isust on washout, WT. It is filed as cell-based. As to conditions: WT in direct comparison with N416C; washout after 50 μM FRRFa 45 s; n = 4. How it is done:
ASIC1a function was measured by two-electrode voltage-clamp after recombinant expression in Xenopus oocytes. The channels were activated by a pH5 stimulation solution from a conditioning solution of pH7.4. […] We measured the rate of FRRFa unbinding, as the disappearance of the sustained current after a 50-s incubation with 50 μM FRRFa, as 0.025 ± 0.005 s^−1 (n = 8, Fig. 2b). […] To determine the kinetics of FRRFa association on ASIC1a, we pre-applied the peptide at a concentration of 50 μM for different time periods in the conditioning solution and measured the sustained current fraction.
Figure 2 FRRFa modulation of ASIC1a currents is only partially affected by acidic pocket mutations. (a) FRRFa concentration-response curve. Top, representative current traces. Bottom, Isust/Ipeak ratio induced by pH5 as a function of the FRRFa concentration (pre-applied during 45–50 s and present in pH5 solution), n = 7–11. (b) Time course of disappearance of the FRRFa-induced Isust. FRRFa at 50 μM was applied for 45 s, and current was measured once every minute during washout with FRRFa-free solution. Exponential fit shown as solid line (n = 4, error bars are smaller than the symbols). (c) Time course of appearance of Isust. Oocytes were exposed for various durations to 50 μM FRRFa in the pH7.4 conditioning solution, before activation of ASIC currents with pH5, including 50 μM FRRFa. […]

With `N=C(N)NCCC[C@H](NC(=O)[C@H](CCCNC(=N)N)NC(=O)[C@@H](N)Cc1ccccc1)C(=O)N[C@@H](Cc1ccccc1)C(N)=O` [FRRFa, Phe-Arg-Arg-Phe-amide] (H-FRRF-NH2), the koff – broadly, the rate constant with which the complex falls apart – came to 0.029 ± 0.011 s⁻¹.
